According to patent US8119116B2, “Therapeutics for cancer using 3-bromopyruvate and other selective inhibitors of ATP production” (John Hopkins University School of Medicine, priority 2001, dated 2012):

Key:
[1] = system: surrounding liver tissue and major tissues; experiment: Histology of surrounding liver and major tissues after intraarterial injection or embolization; details: rabbit, in vivo
Experimental: Administration of anesthesia, intravenous access and sodium pentothal anesthesia were carried out as described in Example 12. Transcatheter hepatic artery injection of 3-BrPA was performed under fluoroscopy. The animals were brought to the angiography suite and intubated using a size 3.0 mm endotracheal tube (Mallinkrodt Medical, St. Louis, Mo.) but not ventilated. Surgical cut-down was performed to gain access into the right common femoral artery, after which a 3 French sheath (Cook Inc., Bloomington, Ind.) was placed. A specially manufactured 2 French catheter with a tip in the shape of a hockey-stick (JB1 catheter, Cook Inc., Bloomington, Ind.) was manipulated into the celiac axis after which a celiac arteriogram was performed in order to delineate the blood supply to the liver and confirm the location of the tumor. The tumor could readily be visualized as a region of hypervascular blush located on the left side of the liver near the gastric fundus. […]
Normal tissues and tumors were fixed in 10% formalin, sliced at […] intervals for gross examination, and then embedded completely in paraffin after which […] sections were stained with hemotoxylin and eosin. Tumor viability was estimated by visual inspection and expressed as a percentage of viable tumor area for each slice. The overall percentage of viable tumor in each rabbit was calculated. […]

[2] = system: rabbit VX2 tumor mitochondria; experiment: Mitochondrial respiration (oxygen consumption); type: biochemical; details: 1.2 mM
Experimental: The freshly isolated liver or VX2 tumor tissues (15-20 g wet weight) was rinsed in 3 volumes of H-medium (210 mM D-mannitol, 70 mM sucrose, 2 mM Hepes, and 0.05% bovine albumin, pH 7.4) at 4° C. and minced with a razor blade as finely as possible. A 30% (V/V) suspension was made using ice-cold H-medium in a Potter-Elvehjem glass homogenizer (55 ml capacity), and homogenization was achieved by applying 4 complete up and down strokes through the suspension with a rotating (˜400 rpm), serrated, teflon pestle attached to a motor. To remove cell debris and nuclei, the resultant homogenate was diluted to twice the initial volume and centrifuged at 630×g for 8 minutes at 4° C. in a Sorvall RC-2B centrifuge using a GSA rotor. The supernatant was removed and then centrifuged at 6,800 g for 15 min under the same conditions. The resultant supernatant was saved and referred to here as the cytosolic faction. […]
Oxygen consumption rates were measured polarographically using a Clark oxygen electrode inserted into a 2.5 ml chamber equipped with a magnetic stirrer. […] The loss of oxygen was monitored in a 2.1 ml system at 25° C. containing 1 mg mitochondria, 0.5 mM EDTA, 2.0 mM Hepes, 220 mM D-mannitol, 70 mM sucrose, 2.5 mM KPi, 2.6 mM MgCl2, and 0.5 mg/ml bovine albumin, and, where indicated, 7.8 mM succinate (respiratory substrate), and 0.24 mM ADP (ATP synthesis substrate). […]

[3] = system: "metastatic" lung tumors; experiment: Systemic delivery via marginal ear vein, effect on metastatic lung tumors; type: in vivo, rabbit; details: 25 ml, 0.5 mM, 4 days
Experimental: (§1) Normal tissues and tumors were fixed in 10% formalin, sliced at […] intervals for gross examination, and then embedded completely in paraffin after which […] sections were stained with hemotoxylin and eosin. Tumor viability was estimated by visual inspection and expressed as a percentage of viable tumor area for each slice. The overall percentage of viable tumor in each rabbit was calculated.
(§2) Finally, it was important to examine the effect of 3-BrPA when delivered systemically (i.e., via the general circulation) on both animal toxicity and its capacity to damage liver implanted tumors.

[4] = system: AS-30D hepatoma cells; experiment: Hepatoma cell viability by trypan blue; type: cell-based, rat; details: 5 mM, 12 h
Experimental: AS-30D hepatoma cells grown in the peritoneal cavity of Sprague Dawley female rats (see Materials) were adapted to grow in tissue culture in Dulbecco's modified Eagle's medium containing 10% fetal bovine serum. Cells were maintained at 37° C. in a humidified atmosphere containing 5% CO2, and counted in a Neubauer chamber after trypan blue dye addition (cell/dye volume=1/1) by visualization under a Nikon inverted microscope.
The studies described above using the VX2 tumor model for liver cancer predict that 2DOG and 3BrPA may have the capacity to kill hepatoma cells expressing the high glycolytic/high hexokinase phenotype. […] Cell killing was assessed in these experiments by counting those cells in which trypan blue had entered.

[5] = system: liver implanted VX2 tumors; experiment: Systemic delivery via marginal ear vein, effect on liver implanted VX2 tumors; type: in vivo, rabbit; details: 25 ml, 0.5 mM via a marginal ear vein
Experimental: as §1, §2

Structure (SMILES): O=C(O)C(=O)CBr [3BrPA, 3-bromopyruvic acid]
- damage to 9 major tissues [1]: In no case was there evidence for damage
- state of portal veins, sinusoids and bile ducts [1]: remained completely intact
- inhibition of mitochondrial respiration (basal succinate rate and ADP stimulated rate) [2]: completely inhibits
- size of secondary tumors in the lungs [3]: only very small tumors
- "metastatic" lung tumors greater than 1 mm in diameter ([3]; 5 in untreated animals): almost complete disappearance and none
- cells killed (trypan blue uptake) [4]: killing all cells
- killing effect on liver implanted VX2 tumors [5]: no killing effect
